According to article PMC8429728, “TNK1 is a ubiquitin-binding and 14-3-3-regulated kinase that can be targeted to block tumor growth” (Nature Communications, 2021):
Like-named read-outs stand apart in the source and are kept apart here.

Legend:
Experiment in all cases: biochemical
Parameters in all cases: Reaction Biology 371-kinase panel at Km ATP, per cent enzyme activity relative to DMSO, single dose in duplicate
Details in all cases: duplicate measurements, Km ATP
TRKC = molecular target: T1, TRKC (Homo sapiens, UniProt Q16288)
T1 construct: gene NTRK3
Method in brief: (§1)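 Percent kinase activity relative to vehicle (DMSO) is reported for a 371-kinase in vitro panel at 300 nM compound; IC50 values derive from variable-slope sigmoidal fits with the lower plateau fixed at 0.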

CAMK2b = CAMK2b (Homo sapiens, UniProt Q13554)
Method in brief: as §1

PLK1 = PLK1 (Homo sapiens, UniProt P53350)
Sequence of PLK1 (P53350 whole entry): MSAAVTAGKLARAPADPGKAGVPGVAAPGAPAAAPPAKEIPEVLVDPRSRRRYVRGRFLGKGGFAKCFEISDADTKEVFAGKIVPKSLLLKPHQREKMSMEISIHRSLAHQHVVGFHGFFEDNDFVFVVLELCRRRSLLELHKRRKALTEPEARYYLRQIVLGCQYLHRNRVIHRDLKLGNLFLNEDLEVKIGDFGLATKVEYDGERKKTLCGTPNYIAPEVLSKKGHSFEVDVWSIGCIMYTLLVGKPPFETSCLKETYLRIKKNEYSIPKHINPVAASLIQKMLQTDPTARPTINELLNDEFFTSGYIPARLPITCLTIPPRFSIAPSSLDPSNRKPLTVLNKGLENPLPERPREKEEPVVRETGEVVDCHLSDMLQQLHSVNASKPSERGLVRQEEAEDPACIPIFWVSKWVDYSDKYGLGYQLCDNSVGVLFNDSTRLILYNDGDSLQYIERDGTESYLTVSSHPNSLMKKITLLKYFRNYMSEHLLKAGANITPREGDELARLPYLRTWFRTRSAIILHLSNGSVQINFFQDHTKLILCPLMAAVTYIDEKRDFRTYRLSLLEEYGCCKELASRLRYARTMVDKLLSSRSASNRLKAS
Method in brief: as §1

PIM2 = PIM2 (Homo sapiens, UniProt Q9P1W9)
Sequence of PIM2 (Q9P1W9 whole entry): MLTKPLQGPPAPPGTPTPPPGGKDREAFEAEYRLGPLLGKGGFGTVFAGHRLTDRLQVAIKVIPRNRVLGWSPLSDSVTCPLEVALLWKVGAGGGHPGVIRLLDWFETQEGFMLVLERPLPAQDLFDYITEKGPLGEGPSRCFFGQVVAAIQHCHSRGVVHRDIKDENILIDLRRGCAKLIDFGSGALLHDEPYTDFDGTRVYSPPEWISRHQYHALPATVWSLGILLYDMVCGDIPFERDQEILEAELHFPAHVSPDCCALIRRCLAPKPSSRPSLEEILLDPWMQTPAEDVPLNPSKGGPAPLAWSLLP
Method in brief: as §1

CDK6/cyclin D1 = CDK6/cyclin D1 (Homo sapiens, UniProt Q00534)
Method in brief: as §1

STK16 = STK16 (Homo sapiens, UniProt O75716)
Sequence of STK16 (O75716 whole entry): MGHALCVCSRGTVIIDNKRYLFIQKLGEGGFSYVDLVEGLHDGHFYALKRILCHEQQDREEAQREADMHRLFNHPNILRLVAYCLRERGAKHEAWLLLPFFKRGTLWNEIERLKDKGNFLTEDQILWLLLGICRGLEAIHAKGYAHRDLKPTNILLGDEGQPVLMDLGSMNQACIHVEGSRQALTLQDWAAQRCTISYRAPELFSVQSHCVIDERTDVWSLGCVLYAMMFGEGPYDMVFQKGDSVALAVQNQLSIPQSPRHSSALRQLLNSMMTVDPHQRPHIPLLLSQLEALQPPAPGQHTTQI
Method in brief: as §1

MYO3b = MYO3b (Homo sapiens, UniProt Q8WXR4)
Method in brief: as §1

MNK1 = molecular target: T2, MNK1 (Homo sapiens, UniProt Q9BUB5)
T2 construct: gene MKNK1
Method in brief: as §1

YSK4/MAP3K19 = YSK4/MAP3K19 (Homo sapiens, UniProt Q56UN5)
Method in brief: as §1

SGK3/SGKL = SGK3/SGKL (Homo sapiens, UniProt Q96BR1)
Sequence of SGK3/SGKL (Q96BR1 whole entry): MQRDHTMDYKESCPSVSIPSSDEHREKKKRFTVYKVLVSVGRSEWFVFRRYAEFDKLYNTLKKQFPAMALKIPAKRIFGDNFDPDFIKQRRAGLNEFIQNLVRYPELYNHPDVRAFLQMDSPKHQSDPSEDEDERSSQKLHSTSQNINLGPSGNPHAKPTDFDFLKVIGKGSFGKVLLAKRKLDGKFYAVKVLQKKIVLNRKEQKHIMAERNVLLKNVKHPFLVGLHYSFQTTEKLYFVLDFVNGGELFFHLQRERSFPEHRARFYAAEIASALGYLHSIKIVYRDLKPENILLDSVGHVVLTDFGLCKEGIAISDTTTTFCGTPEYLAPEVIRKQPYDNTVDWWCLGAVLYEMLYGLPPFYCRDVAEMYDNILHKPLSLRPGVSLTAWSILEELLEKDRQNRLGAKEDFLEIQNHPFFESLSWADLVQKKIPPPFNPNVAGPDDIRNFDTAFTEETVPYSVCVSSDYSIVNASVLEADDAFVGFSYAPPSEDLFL
Method in brief: as §1

c-MER = molecular target: T3, c-MER (Homo sapiens, UniProt Q12866)
T3 construct: gene MERTK
Method in brief: as §1

ERBB4/HER4 = ERBB4/HER4 (Homo sapiens, UniProt Q15303)
Method in brief: as §1

MAPKAPK2 = MAPKAPK2 (Homo sapiens, UniProt P49137)
Sequence of MAPKAPK2 (P49137 whole entry): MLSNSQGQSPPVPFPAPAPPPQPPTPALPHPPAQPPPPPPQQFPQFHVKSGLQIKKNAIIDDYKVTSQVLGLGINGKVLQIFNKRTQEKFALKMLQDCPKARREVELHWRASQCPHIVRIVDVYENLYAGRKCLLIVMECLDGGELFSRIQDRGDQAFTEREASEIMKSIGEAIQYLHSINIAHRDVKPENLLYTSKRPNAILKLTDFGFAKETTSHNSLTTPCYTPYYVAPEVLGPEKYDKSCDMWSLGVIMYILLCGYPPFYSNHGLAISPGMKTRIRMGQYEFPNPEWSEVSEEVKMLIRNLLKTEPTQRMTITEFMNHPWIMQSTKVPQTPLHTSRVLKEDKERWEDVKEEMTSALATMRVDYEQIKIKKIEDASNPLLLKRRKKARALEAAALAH
Method in brief: as §1

PAK6 = PAK6 (Homo sapiens, UniProt Q9NQU5)
Method in brief: as §1

DAPK1 = DAPK1 (Homo sapiens, UniProt P53355)
Method in brief: as §1

FLT1/VEGFR1 = FLT1/VEGFR1 (Homo sapiens, UniProt P17948)
Sequence of FLT1/VEGFR1 (P17948 whole entry): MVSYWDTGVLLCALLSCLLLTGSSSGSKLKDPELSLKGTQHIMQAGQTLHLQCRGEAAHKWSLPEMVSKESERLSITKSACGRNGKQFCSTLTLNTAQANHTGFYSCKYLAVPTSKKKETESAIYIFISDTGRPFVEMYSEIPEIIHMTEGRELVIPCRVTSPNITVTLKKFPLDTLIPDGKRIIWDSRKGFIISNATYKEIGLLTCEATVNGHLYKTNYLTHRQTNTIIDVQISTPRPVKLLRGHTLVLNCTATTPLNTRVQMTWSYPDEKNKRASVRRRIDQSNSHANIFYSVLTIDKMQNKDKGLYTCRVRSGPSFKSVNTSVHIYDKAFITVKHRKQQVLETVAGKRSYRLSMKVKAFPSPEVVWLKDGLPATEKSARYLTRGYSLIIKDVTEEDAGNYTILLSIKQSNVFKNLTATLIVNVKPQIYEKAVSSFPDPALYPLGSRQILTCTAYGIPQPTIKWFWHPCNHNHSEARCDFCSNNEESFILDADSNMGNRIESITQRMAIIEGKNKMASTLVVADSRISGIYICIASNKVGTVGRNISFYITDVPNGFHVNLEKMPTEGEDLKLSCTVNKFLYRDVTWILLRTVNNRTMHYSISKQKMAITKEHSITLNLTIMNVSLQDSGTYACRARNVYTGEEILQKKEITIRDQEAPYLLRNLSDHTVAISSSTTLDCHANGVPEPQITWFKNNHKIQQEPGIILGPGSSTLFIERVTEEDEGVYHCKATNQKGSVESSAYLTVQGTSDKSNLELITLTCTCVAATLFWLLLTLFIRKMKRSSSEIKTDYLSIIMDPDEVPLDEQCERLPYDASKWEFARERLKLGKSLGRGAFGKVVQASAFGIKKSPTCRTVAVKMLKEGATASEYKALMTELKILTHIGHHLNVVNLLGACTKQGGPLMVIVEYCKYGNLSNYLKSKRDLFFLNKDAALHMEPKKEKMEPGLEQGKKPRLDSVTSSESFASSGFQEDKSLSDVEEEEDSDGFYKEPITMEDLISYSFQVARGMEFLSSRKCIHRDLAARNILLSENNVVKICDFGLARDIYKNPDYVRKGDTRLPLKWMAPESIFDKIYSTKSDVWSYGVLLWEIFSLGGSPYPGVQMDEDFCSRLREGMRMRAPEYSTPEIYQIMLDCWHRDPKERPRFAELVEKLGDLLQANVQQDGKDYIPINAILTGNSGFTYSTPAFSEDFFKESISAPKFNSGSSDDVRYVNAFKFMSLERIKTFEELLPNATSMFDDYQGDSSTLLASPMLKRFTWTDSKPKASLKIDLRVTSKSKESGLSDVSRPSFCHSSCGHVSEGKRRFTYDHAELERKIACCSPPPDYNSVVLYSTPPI
Method in brief: as §1

BLK = BLK (Homo sapiens, UniProt P51451)
Method in brief: as §1

TYK2 = TYK2 (Homo sapiens, UniProt P29597)
Sequence of TYK2 (P29597 whole entry): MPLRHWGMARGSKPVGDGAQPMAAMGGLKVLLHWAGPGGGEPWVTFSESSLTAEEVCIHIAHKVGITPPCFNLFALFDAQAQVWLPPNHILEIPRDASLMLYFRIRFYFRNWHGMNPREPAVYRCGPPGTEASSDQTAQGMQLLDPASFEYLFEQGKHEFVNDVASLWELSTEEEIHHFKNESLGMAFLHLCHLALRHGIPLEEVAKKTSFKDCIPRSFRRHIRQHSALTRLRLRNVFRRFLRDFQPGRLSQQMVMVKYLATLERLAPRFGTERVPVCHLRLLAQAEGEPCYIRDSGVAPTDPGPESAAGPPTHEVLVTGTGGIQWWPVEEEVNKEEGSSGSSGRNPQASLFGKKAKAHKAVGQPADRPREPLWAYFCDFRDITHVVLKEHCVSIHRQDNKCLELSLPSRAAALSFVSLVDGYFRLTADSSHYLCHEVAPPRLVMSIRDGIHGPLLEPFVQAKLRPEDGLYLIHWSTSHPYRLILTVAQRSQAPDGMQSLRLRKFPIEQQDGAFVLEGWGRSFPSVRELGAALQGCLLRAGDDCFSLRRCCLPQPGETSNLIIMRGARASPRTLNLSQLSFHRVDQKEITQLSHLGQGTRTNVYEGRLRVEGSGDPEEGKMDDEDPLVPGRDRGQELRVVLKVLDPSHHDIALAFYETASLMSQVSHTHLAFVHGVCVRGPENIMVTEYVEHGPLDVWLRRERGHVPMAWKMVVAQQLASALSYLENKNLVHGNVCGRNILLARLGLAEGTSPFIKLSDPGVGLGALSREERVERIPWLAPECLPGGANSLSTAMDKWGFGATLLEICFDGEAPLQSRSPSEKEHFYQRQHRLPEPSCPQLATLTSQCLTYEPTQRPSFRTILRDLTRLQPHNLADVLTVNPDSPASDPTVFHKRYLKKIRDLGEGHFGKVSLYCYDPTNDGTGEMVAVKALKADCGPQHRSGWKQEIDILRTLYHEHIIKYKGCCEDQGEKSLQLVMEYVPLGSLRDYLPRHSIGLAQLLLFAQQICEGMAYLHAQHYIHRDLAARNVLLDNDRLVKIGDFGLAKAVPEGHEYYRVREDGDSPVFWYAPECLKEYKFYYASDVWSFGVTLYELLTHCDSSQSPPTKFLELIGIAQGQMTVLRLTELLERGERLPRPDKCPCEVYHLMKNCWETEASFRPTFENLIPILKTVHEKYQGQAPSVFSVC
Method in brief: as §1

ULK2 = ULK2 (Homo sapiens, UniProt Q8IYT8)
Method in brief: as §1

[1] = read-out: % Enzyme Activity (relative to DMSO controls) / TP-0005801 (0.3µM) / Data 1
[2] = read-out: % Enzyme Activity (relative to DMSO controls) / TP-0005801 (0.3µM) / Data 2

- remaining activity at 0.3 µM (TRKC; [1]): 109%
- remaining activity at 0.3 µM (TRKC; [2]): 104%
- remaining activity at 0.3 µM (CAMK2b; [1]): 64.8%
- remaining activity at 0.3 µM (CAMK2b; [2]): 64%
- remaining activity at 0.3 µM (PLK1; [1]): 88.7%
- remaining activity at 0.3 µM (PLK1; [2]): 87.8%
- remaining activity at 0.3 µM (PIM2; [1]): 116%
- remaining activity at 0.3 µM (PIM2; [2]): 110%
- remaining activity at 0.3 µM (CDK6/cyclin D1; [1]): 88.2%
- remaining activity at 0.3 µM (CDK6/cyclin D1; [2]): 87.5%
- remaining activity at 0.3 µM (STK16; [1]): 107%
- remaining activity at 0.3 µM (STK16; [2]): 105%
- remaining activity at 0.3 µM (MYO3b; [1]): 57.7%
- remaining activity at 0.3 µM (MYO3b; [2]): 56.8%
- remaining activity at 0.3 µM (MNK1; [1]): 92.5%
- remaining activity at 0.3 µM (MNK1; [2]): 90.8%
- remaining activity at 0.3 µM (YSK4/MAP3K19; [1]): 93.8%
- remaining activity at 0.3 µM (YSK4/MAP3K19; [2]): 92.8%
- remaining activity at 0.3 µM (SGK3/SGKL; [1]): 108%
- remaining activity at 0.3 µM (SGK3/SGKL; [2]): 105%
- remaining activity at 0.3 µM (c-MER; [1]): 106%
- remaining activity at 0.3 µM (c-MER; [2]): 104%
- remaining activity at 0.3 µM (ERBB4/HER4; [1]): 103%
- remaining activity at 0.3 µM (ERBB4/HER4; [2]): 102%
- remaining activity at 0.3 µM (MAPKAPK2; [1]): 99%
- remaining activity at 0.3 µM (MAPKAPK2; [2]): 96.4%
- remaining activity at 0.3 µM (PAK6; [1]): 107%
- remaining activity at 0.3 µM (PAK6; [2]): 105%
- remaining activity at 0.3 µM (DAPK1; [1]): 102%
- remaining activity at 0.3 µM (DAPK1; [2]): 101%
- remaining activity at 0.3 µM (FLT1/VEGFR1; [1]): 96.8%
- remaining activity at 0.3 µM (FLT1/VEGFR1; [2]): 96.2%
- remaining activity at 0.3 µM (BLK; [1]): 88.3%
- remaining activity at 0.3 µM (BLK; [2]): 87.5%
- remaining activity at 0.3 µM (TYK2; [1]): 100%
- remaining activity at 0.3 µM (TYK2; [2]): 96.7%
- remaining activity at 0.3 µM (ULK2; [1]): 86.5%
- remaining activity at 0.3 µM (ULK2; [2]): 82.4%
SMILES: COc1cc(N2CCN(C)CC2)c(C)cc1Nc1ncc(Br)c(Nc2cccnc2N(C)C)n1 [TP-5801]
